Values belong to the compound of their own block, whether it stands above or below them.
Key:
human Nav1.1 = target: T1, human Nav1.1 (Homo sapiens, UniProt P35498); assay: Amplification of Nav1.1-derived voltage-dependent sodium current (Nav1.1 current), cell line stably expressing human Nav1.1, automated patch clamp; type: cell-based
T1 construct: host or cells: HEK293
Procedure, shortened: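 Automated whole-cell voltage-clamp recordings used HEK293 cells stably expressing human Nav1.1, keeping only cells with >500 pA current, with currents evoked by ramp voltage. Compounds were applied in extracellular fluid with 1% DMSO, and amplification (%) was computed from peak current or AUC after versus before addition.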

human Nav1.5 = target: T2, human Nav1.5 (Homo sapiens, UniProt Q14524); assay: Amplification of Nav1.5-derived voltage-dependent sodium current (Nav1.5 current), cell line stably expressing human Nav1.5, automated patch clamp; type: cell-based
T2 construct: expressed in transfected cells; host or cells: CHO-K1 (T-REx System, ThermoFisher Scientific)
T2 sequence (Q14524 1-2015 isoform Q14524-2): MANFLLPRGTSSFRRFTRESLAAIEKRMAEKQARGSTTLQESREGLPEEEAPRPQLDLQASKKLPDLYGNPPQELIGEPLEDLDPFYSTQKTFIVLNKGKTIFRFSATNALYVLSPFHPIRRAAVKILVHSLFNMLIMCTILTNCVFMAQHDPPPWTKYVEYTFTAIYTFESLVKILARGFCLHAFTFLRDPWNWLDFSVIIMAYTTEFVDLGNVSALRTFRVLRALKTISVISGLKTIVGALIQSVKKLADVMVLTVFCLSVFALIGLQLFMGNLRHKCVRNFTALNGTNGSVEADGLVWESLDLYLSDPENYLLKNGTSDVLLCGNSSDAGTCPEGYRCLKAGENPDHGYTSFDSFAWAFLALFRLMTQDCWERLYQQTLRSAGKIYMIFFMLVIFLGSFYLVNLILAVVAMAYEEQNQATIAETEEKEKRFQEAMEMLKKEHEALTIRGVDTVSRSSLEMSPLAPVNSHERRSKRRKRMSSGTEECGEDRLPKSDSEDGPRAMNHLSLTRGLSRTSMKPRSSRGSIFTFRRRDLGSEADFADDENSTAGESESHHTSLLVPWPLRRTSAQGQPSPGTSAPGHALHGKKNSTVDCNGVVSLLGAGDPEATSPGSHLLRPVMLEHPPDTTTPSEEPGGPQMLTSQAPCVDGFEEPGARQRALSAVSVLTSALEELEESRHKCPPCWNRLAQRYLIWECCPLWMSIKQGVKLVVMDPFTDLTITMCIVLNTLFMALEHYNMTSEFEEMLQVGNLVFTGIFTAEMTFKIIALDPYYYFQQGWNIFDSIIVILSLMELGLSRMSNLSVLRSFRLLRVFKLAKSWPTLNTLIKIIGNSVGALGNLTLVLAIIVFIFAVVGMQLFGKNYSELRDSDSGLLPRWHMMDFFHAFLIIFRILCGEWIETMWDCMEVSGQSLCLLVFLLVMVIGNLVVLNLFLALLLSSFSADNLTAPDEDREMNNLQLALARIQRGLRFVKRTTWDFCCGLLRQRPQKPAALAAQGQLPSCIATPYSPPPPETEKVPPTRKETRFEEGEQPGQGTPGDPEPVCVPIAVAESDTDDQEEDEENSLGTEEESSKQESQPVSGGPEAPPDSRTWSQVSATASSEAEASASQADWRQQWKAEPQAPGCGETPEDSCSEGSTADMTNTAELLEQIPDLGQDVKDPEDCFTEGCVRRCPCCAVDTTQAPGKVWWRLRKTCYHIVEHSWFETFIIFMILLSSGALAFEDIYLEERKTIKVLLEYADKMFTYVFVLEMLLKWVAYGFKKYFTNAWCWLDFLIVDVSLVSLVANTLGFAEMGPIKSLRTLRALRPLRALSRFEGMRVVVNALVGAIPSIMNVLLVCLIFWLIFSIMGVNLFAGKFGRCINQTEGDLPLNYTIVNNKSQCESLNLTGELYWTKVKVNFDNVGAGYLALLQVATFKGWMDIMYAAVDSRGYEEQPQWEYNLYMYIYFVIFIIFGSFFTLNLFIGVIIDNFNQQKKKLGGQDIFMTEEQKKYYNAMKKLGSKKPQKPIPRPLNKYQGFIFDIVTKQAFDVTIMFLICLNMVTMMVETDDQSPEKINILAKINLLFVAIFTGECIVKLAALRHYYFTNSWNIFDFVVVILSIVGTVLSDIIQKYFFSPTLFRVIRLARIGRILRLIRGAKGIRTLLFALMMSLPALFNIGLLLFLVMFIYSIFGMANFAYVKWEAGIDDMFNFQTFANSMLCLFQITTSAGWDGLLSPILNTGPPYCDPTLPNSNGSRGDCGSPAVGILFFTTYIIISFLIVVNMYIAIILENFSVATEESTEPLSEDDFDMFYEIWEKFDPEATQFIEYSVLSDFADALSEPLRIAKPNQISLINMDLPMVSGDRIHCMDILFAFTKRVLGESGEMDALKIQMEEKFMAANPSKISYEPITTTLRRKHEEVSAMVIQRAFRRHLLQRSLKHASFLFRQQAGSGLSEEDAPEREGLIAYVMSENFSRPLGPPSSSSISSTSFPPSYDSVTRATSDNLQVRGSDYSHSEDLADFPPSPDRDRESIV
Method: Test 2: Evaluation of the Amplification in Nav1.5-Derived Voltage-Dependent Sodium Current (Nav1.5 Current) by Using a Cell Line Stably Expressing Human Nav1.5
A CHO-K1 cell line (Chinese hamster ovary) stably expressing human Nav1.5 (Gene Bank Accession No: P000326.2) was obtained by using purchased T-Rex System (ThermoFisher Scientific, USA), and used for the present test. The effect of test compounds on the amplification of Nav1.5 current was evaluated by using a cell line stably expressing human Nav1.5 and HTS automated patch clamp system, similarly in the method using Nav1.1. In other words, test compounds were added in an extracellular fluid which contained 1% DMSO and 500 nmol/L Tetrodotoxin (TTX), and evaluated as a change of the peak value of Nav1.5 current and the area under the curve (AUC). The induction and the measurement of Nav1.5 current, the pharmacologic effect on Nav1.5 current, and a method for pharmacological evaluation were carried out by the same method as in Nav1.1.

[1] = 10 μmol/L compound, change of the area under the curve of Nav1.1 current (Test Result 1), read-out: Nav1.1 current amplification rate (%)
[2] = 10 μmol/L compound, change of the area under the curve of Nav1.5 current (Test Result 1), read-out: Nav1.5 current amplification rate (%)
[3] = 10 μmol/L compound, change of the area under the curve of Nav1.1 current (Test Result 1)
[4] = 10 μmol/L compound, change of the area under the curve of Nav1.5 current (Test Result 1)
[5] = compound 1 μmol/L, HEK293 stably expressing human Nav1.1
[6] = compound 1 μmol/L, CHO-K1 stably expressing human Nav1.5
[7] = compound 3 μmol/L, HEK293 stably expressing human Nav1.1
[8] = compound 3 μmol/L, CHO-K1 stably expressing human Nav1.5

activation at 10 µM (human Nav1.1; [1]): 50%
SMILES: CC1CCN(c2ccc(=O)n(CC(=O)N3CCc4cc(N5CCN(C)CC5)ccc43)n2)CC1 [Example 220]
activation at 10 µM (human Nav1.5; [2]): 5%

activation at 10 µM (human Nav1.1; [1]): 107%
SMILES: CC1CCN(c2ccc(=O)n(CC(=O)Nc3ccc4c(c3)OCC4)n2)CC1 [Example 170]
activation at 10 µM (human Nav1.5; [2]): 1%

Nav1.1 current amplification rate (%) (human Nav1.1; [3]): 148%
SMILES: COc1cc(=O)n(CC(=O)N2CCN(c3cncc(F)c3)CC2)nc1C1=CCC(C(F)(F)F)CC1 (racemic) [Example 486]
Nav1.5 current amplification rate (%) (human Nav1.5; [4]): 8%

Nav1.1 current amplification rate (%) (human Nav1.1; [3]): 15%
SMILES: CC1CCN(c2ccc(=O)n(CC(=O)Nc3ccc4c(c3)ncn4C)n2)CC1 [Example 98]
Nav1.5 current amplification rate (%) (human Nav1.5; [4]): 4%

activation at 1 µM (human Nav1.1; compound 1 μmol/L, HEK293 stably expressing human Nav1.1, read-out: Nav1.1 current amplification rate (%)): 183%
SMILES: CC1CC=C(c2ccc(=O)n(CC(=O)Nc3ccc4ocnc4c3)n2)CC1 (stereo not drawn) [Example 531, N-(1,3-benzooxazol-5-yl)-2-[3-(4-methylcyclohex-1-en-1-yl)-6-oxopyridazin-1(6H)-yl]acetamide]
activation at 1 µM (human Nav1.5; compound 1 μmol/L, CHO-K1 stably expressing human Nav1.5, read-out: Nav1.5 current amplification rate (%)): 8%

Nav1.1 current amplification rate (%) (human Nav1.1; [3]): 310%
SMILES: COc1nc2cc(NC(=O)Cn3nc(C4=CCC(C)CC4)ccc3=O)ccc2o1 (racemic) [Example 239]
Nav1.5 current amplification rate (%) (human Nav1.5; [4]): 31%

Nav1.1 current amplification rate (%) (human Nav1.1; [3]): 40%
SMILES: CC1CC=C(c2ccc(=O)n(CC(=O)N3CCN(c4nccs4)CC3)n2)CC1 (stereo not drawn) [Example 414]
Nav1.5 current amplification rate (%) (human Nav1.5; [4]): −2%

Nav1.1 current amplification rate (%) (human Nav1.1; [5]): 265%
SMILES: CC1CC=C(c2ccc(=O)n(CC(=O)N3CCc4c(-c5cn[nH]c5)cncc43)n2)CC1 (racemic) [Example 311]
Nav1.5 current amplification rate (%) (human Nav1.5; [6]): 52%

Nav1.1 current amplification rate (%) (human Nav1.1; [5]): 848%
SMILES: CC1CC=C(c2ccc(=O)n(CC(=O)N3CCc4c(Cn5ccnc5)cccc43)n2)CC1 (racemic) [Example 286]
Nav1.5 current amplification rate (%) (human Nav1.5; [6]): 579%

Nav1.1 current amplification rate (%) (human Nav1.1; [7]): 481%
SMILES: CC1CC=C(c2ccc(=O)n(CC(=O)N3CCc4c(CN5CCOCC5)cccc43)n2)CC1 (racemic) [Example 270]
Nav1.5 current amplification rate (%) (human Nav1.5; [8]): 78%

Nav1.1 current amplification rate (%) (human Nav1.1; [3]): 296%
SMILES: CCc1nc2cc(NC(=O)Cn3nc(N4CCC(C)CC4)ccc3=O)ccc2o1 [Example 97]
Nav1.5 current amplification rate (%) (human Nav1.5; [4]): 19%

Nav1.1 current amplification rate (%) (human Nav1.1; [7]): 345%
SMILES: O=C(Cn1nc(C2=CCC3(CC2)CC3(F)F)ccc1=O)N1CCc2c(N3CCOCC3)cccc21 (racemic) [Example 478]
Nav1.5 current amplification rate (%) (human Nav1.5; [8]): 23%

Nav1.1 current amplification rate (%) (human Nav1.1; [7]): 597%
SMILES: Cc1ncc(-c2cccc3c2CCN3C(=O)Cn2nc(C3=CCC(C)CC3)ccc2=O)cn1 (racemic) [Example 264]
Nav1.5 current amplification rate (%) (human Nav1.5; [8]): 65%

activation at 10 µM (human Nav1.1; [1]): 27%
SMILES: O=C(Cn1nc(N2CC3(CCCCC3)C2)ccc1=O)Nc1ccn2ccnc2c1 [Example 179]
activation at 10 µM (human Nav1.5; [2]): -1%

Nav1.1 current amplification rate (%) (human Nav1.1; [3]): 376%
SMILES: COc1cc(C2=CCC(C)CC2)nn(CC(=O)N2CCN(c3cncc(F)c3)CC2)c1=O (racemic) [Example 488]
Nav1.5 current amplification rate (%) (human Nav1.5; [4]): 174%

Nav1.1 current amplification rate (%) (human Nav1.1; [3]): 199%
SMILES: CC1CC=C(c2ccc(=O)n(CC(=O)Nc3ccn4cc(C(F)(F)F)nc4c3)n2)CC1 (stereo not drawn) [Example 421]
Nav1.5 current amplification rate (%) (human Nav1.5; [4]): 34%

activation at 10 µM (human Nav1.1; [1]): 32%
SMILES: COC(=O)c1ccc(NC(=O)Cn2nc(N3CCC(C)CC3)ccc2=O)cn1 [Example 182]
activation at 10 µM (human Nav1.5; [2]): 17%

Nav1.1 current amplification rate (%) (human Nav1.1; [3]): 93%
SMILES: CC1CCN(c2ccc(=O)n(CC(=O)Nc3cccc(-c4cnco4)c3)n2)CC1 [Example 77]
Nav1.5 current amplification rate (%) (human Nav1.5; [4]): 28%

activation at 10 µM (human Nav1.1; [1]): 155%
SMILES: CC1CCN(c2ccc(=O)n(CC(=O)Nc3ccc4ocnc4c3)n2)CC1 [Example 50, N-(1,3-benzooxazol-5-yl)-2-[3-(4-methylpiperidin-1-yl)-6-oxopyridazin-1(6H)-yl]acetamide]
activation at 10 µM (human Nav1.5; [2]): 4%

Nav1.1 current amplification rate (%) (human Nav1.1; [3]): 224%
SMILES: COc1cc(C2=CCC(C)(C)CC2)nn(CC(=O)Nc2ccn3ccnc3c2)c1=O [Example 456]
Nav1.5 current amplification rate (%) (human Nav1.5; [4]): 29%

Nav1.1 current amplification rate (%) (human Nav1.1; [3]): 32%
SMILES: CC1CC=C(c2ccc(=O)n(CC(=O)Nc3cccc4nccn34)n2)CC1 (racemic) [Example 255]
Nav1.5 current amplification rate (%) (human Nav1.5; [4]): 15%

From US20220347175A1, “PYRIDAZINONE DERIVATIVE” (Sumitomo Dainippon Pharma Co., Ltd., priority 2018, published 2022)
